Tested on: γ-glutamyl transpeptidase (GGT)
Test: Amphotericin B knockdown of SRC/NKA ex vivo GGT (western blot band density, semilogarithmic dose response)
Format: cell-based, human
Source text: Morphological, genotypic, phenotypic and functional changes to 2D cultured SRC were monitored to 72hrs following exposure to escalating doses of the well known nephrotoxin, Amphotericin B (Amp B). The TC50 was estimated by Amp B knockdown of SRC/NKA ex vivo GGT activity.
GGT inhibition detected by western blot is shown in below in Table 16.1.
Results from semilogarithmic dose response analysis are shown below in Table 16.2.

C[C@@H]1[C@H](O)[C@@H](C)/C=C/C=C/C=C/C=C/C=C/C=C/C=C/[C@H](O[C@@H]2O[C@H](C)[C@@H](O)[C@H](N)[C@@H]2O)C[C@@H]2O[C@](O)(C[C@@H](O)C[C@@H](O)[C@H](O)CC[C@@H](O)C[C@@H](O)CC(=O)O[C@H]1C)C[C@H](O)[C@H]2C(=O)O [Amphotericin B]
IC50 (2D cultured SRC, exposure to 72 hrs, sigmoidal fit Log(inhibitor) vs response, read-out: IC50 of inhibitory effect on SRC-mediated GGT): 32.3 µM
LOGIC50 (Log(inhibitor) vs response fit, 2D cultured SRC): 1.510
GGT western blot band density (response) ([c] 0.01): 18764
inv response (inverse of band density) ([c] 0.01): 5.329E−05
GGT western blot band density (response) ([c] 0.1): 18959
inv response (inverse of band density) ([c] 0.1): 5.275E−05
GGT western blot band density (response) ([c] 1): 17112
inv response (inverse of band density) ([c] 1): 5.844E−05
GGT western blot band density (response) ([c] 10): 16611
inv response (inverse of band density) ([c] 10): 6.02E−05
GGT western blot band density (response) ([c] 100): 8227
inv response (inverse of band density) ([c] 100): 0.0001216
GGT western blot band density (response) ([c] 1000): 8000
inv response (inverse of band density) ([c] 1000): 0.000125
GGT western blot band density (response) ([c] 10000): 7800
inv response (inverse of band density) ([c] 10000): 0.0001282
